Entries after “also recorded” stand apart in the source; their conditions may differ.
Columns and labels:
[1] = test system: particulate guanylate cyclase; assay: Particulate guanylate cyclase activity in the kidney; assay type: biochemical; details: 1 μM; whole kidney homogenates, renal cortical and medullary membranes, isolated distal nephrons
Protocol: Testing is also carried out to determine biologic effects of these peptides by measuring their effects on particulate guanylate activity in the kidney.

[2] = test system: particulate guanylate cyclase; assay: Cyclic GMP / particulate guanylate cyclase activation in cultured smooth muscle cells and porcine aorta; assay type: cell-based; details: for concentration of maximal activation of guanylate cyclase activity / EC50: porcine aorta and isolated smooth muscle cells; for EC50: read-out: half maximal activation (ED5o) of guanylate cyclase
porcine aortas = assay: Vasodilation of porcine aortic strips preconstricted with 0.3 micromolar phenylephrine
Protocol: 30 Kg pigs are sacrificed, and aortic strips are harvested. The strips are attached to F-60 transducer (Narco-BioSystems, Houston, Tex.) and attached to a physiography (Narco-BioSystems) while being submerged in a muscle tissue bath comprising a Krebs Ringer solution at 37° C., with 95% O2-5% CO2, bubbled through the bath. Percentage vasodilation is measured versus time after preconstriction with 0.3 micromolar phenylephrine. […] (Vesely et al., Biochem. Biophys. Res. Commun. 148:1540-1548, 1987).

[3] = test system: renal medullary Na+-K+-ATPase; assay: Inhibition of renal medullary Na+-K+-ATPase activity (FIG. 9); assay type: biochemical; details: for inhibition of renal medullary Na+-K+-ATPase activity: 10^-11 M, n=6, ANOVA
Excerpt: FIG. 9. Inhibition of renal medullary Na+-K+-ATPase activity by proANF 79-98 (kaliuretic peptide), proANF 1-30 (long acting natriuretic peptide), proANF 31-67 (vessel dilator), and angiotensin II at their […] concentrations.

[4] = test system: prostaglandin E2 (PGE2) synthesis; assay: Prostaglandin E2 synthesis (FIG. 8); assay type: biochemical; details: n=6, ANOVA and Duncan's MRT
[5] = Infusion into human subjects with Class III NYHA congestive heart failure; assay type: in vivo, humans; details: for enhancement of sodium excretion: CHF subjects, 100 ng/kg body weight/min for 60 minutes
Protocol: Human proANF's 1-30, 31-67, 79-98, and 99-126 (i.e., ANF) were infused into human subjects with Class III New York Heart Association congestive heart failure (CHF). An identical protocol to that used in example V where these peptides were infused into healthy human subjects was utilized. (See Attachment C and F for a detailed description of this protocol). The human subjects with congestive heart failure received an identical dose (0.1 μg/kg body wt/minute for 60 minutes) that the healthy human subjects received. […] This striking urine output secondary to proANF 31-67 was significant at P<0.0001 compared to the pre-infusion output of the congestive heart failure subjects (n=6).

[6] = Rat clearance model (diuresis and salt excretion); assay type: in vivo, Munich-Wistar rats; details: for FENa, fractional excretion of sodium / UNa, urinary sodium / UNaV, urinary sodium excretion rate / V, urine flow rate: means ± SE
Protocol: The same three peptides and ANF from Example I are tested using the rat clearance model. Six control rats and six experimental Munich-Wistar rats, each weighing 150-200 grams, are used for each peptide, with catheters being placed in both jugular veins and in the femoral artery. The ureters are cannulated for simultaneous urine collections with femoral artery blood collections.
After inserting the catheters, a stabilization of one hour is allowed. A 10 μg/kg bolus of each of the respective human sequences of the peptides is given via the jugular vein to six experimental rats followed by a sustaining infusion of 0.1 μg/kg/min for 60 minutes. Blood and urine samples are collected at 20 minute intervals during this 60 minute infusion. In both the control and experimental animals, hematocrits and plasma sodium values remained at the same levels pre- and post-infusion while blood pressure decreased with each of these peptides (see Attachment B).

[7] = Infusion into healthy human subjects; assay type: in vivo; details: healthy humans; for potassium excretion: 100 ng/kg body wt; for increase in urine volume (in words): 100 ng/kg body wt per minute for 1 hour i.v., n=6, ANOVA; for sodium excretion (in words): 100 ng/kg body wt per minute for 60 minutes, vs baseline; for systolic and diastolic blood pressures: 100 ng/kg body wt per minute i.v. for 60 min, n=6
Protocol: Infusion of these peptides into healthy human subjects was performed as follows: Human pro-ANF 1-30, pro-ANF 31-67, and pro-ANF 79-98, and hANF (i.e., pro-ANF 99-126, were synthesized by Peninsula Laboratories (Belmont, Calif.). High pressure liquid chromatography (HPLC) analysis was performed on a sample of each of the four peptides to ensure purity. The peptides were dissolved in a sterile 0.9% saline solution to a concentration of 100 μg/ml and dispensed in 2 and 5 ml aliquots into sealed sterile vials. At the time of dispensing, randomly selected vials were tested for pyrogens and sterility. Prior to labeling the vials, the actual peptide content of the dispensed solution were determined by direct radioimmunoassay to account for any possible absorption of the respective peptides to the walls of the vials. All vials were then stored at −80° C. until thawed for individual study.
Normal healthy subjects were chosen on the basis of age (between 20 and 50 years), physical examination and biochemical screenings. The subjects consumed their normal diets prior to testing. The subjects fasted overnight and were tested in the morning in the seated position. Intravenous catheters were placed bilaterally for the administration of pro-hANF 1-30, pro-hANF 31-67, pro-hANF 79-98 and hANF (pro-hANF 99-126) and for blood sampling. After completion of a 45-minute equilibration period, there were three […] phases of the study: baseline, experimental infusion (60 minutes) and recovery (3 hours). The baseline phase consisted of two 30 minute urine collection periods, the experimental phase consisted of three 20 minute urine and plasma collection periods, and the recovery phase consisted of two 30 minute urine and plasma collection periods each hour for three hours post-infusion. Urine output was replaced on a milliliter per milliliter basis throughout the study by administering oral water or orange juice. Urine samples were obtained by voiding at the designated collection periods.
The 36 subjects were divided into 6 groups. One group (i.e., the control group) received a placebo infusion of 0.9% sodium chloride during the experimental infusion phase. […] The four remaining groups of six subjects each received human pro-hANF 1-30, pro-hANF 31-67, pro-hANF 79-98 and HANF. The four groups received the peptides by continuous infusion at the rate of 0.1 μg/kg per minute. The volume administered per hour during the experimental infusion phase was 10 ml for all four peptides and the placebo. All infusions were given by a constant-rate infusion pump, with the final concentrations of prohANFs adjusted for the subjects' body weight. The subjects heart rate and cuff blood pressure were taken at 5 minute intervals throughout the study. The excreted urine was analyzed for sodium concentration.

[8] = molecular target: particulate guanylate cyclase of porcine aorta and cultured smooth muscle cells (porcine)
[9] = A, control period (before peptide)
[10] = B, first 60-minute experiment period, 10 μg/kg bolus then 0.1 μg/kg/min via jugular vein
[11] = B, first 60-minute experiment period, 10 μg/kg bolus then 0.1 μg/kg/min
[12] = C, second 60-minute experimental period, 10 μg/kg bolus then 0.1 μg/kg/min
[13] = C, second 60-minute experimental period

In the case of “H-NPMYNAVSNADLMDFKNLLDHLEEKMPLED-OH [proANF 1-30]”, the “particulate guanylate cyclase activity” value [1] is reported as “enhance”, the “cyclic GMP levels in cultured smooth muscle cells” value [2] is reported as “increase cyclic GMP levels” and the “concentration of maximal activation of guanylate cyclase activity” value [2] is reported as “about 1 μM”. For the same molecule, the EC50 [2] was about 10 nM, the “increase in cyclic GMP levels over baseline levels associated with vasodilation” value (porcine aortas) was “four-to-five fold” and the “inhibition of renal medullary Na+-K+-ATPase activity” value (from here on “inhibition”) [3] was “significant at P<0.01”. The “prostaglandin E2 (PGE2) synthesis” value [4] was “increase prostaglandin E2 (PGE2) synthesis”, the “increase of fractional excretion of sodium” value ([5]; CHF individuals) was 3 fold and the “enhancement of sodium excretion” value [5] was “three-to-eight fold”. The hypotension ([5]; human, in vivo) was “None became hypotensive”, the “time after stopping infusion for which diuresis / urine flow is still significantly elevated (P<0.01)” value ([5]; humans with congestive heart failure, listed as Pro ANF's 1-30) was at least 3 h and the “FENa, fractional excretion of sodium” value [6, 9] was 0.023 ± 0.002%. For the same molecule, the “UNa, urinary sodium” value [6, 9] was 34.13 ± 10.98 meq/1, the “UNaV, urinary sodium excretion rate” value [6, 9] was 36.37 ± 8.09 μeq · min^−1 · g kidney wt^−1 and the “V, urine flow rate” value [6, 9] was 1.83 ± 0.27 μl · min^−1 · g kidney wt^−1. The “V, urine flow rate” value [6, 10] was 3.41 ± 0.48 μl · min^−1 · g kidney wt^−1, the “FENa, fractional excretion of sodium” value [6, 11] was 0.241 ± 0.101% and the “UNa, urinary sodium” value [6, 11] was 64.83 ± 12.93 meq/1. The “UNaV, urinary sodium excretion rate” value [6, 11] was 224.30 ± 60.34 μeq · min^−1 · g kidney wt^−1, the “V, urine flow rate” value [6, 12] was 4.31 ± 0.84 μl · min^−1 · g kidney wt^−1 and the “FENa, fractional excretion of sodium” value [6, 13] was 0.285 ± 0.094%. The “UNa, urinary sodium” value [6, 13] was 89.50 ± 19.82 meq/1, the “UNaV, urinary sodium excretion rate” value [6, 13] was 384.98 ± 124.39 μeq · min^−1 · g kidney wt^−1 and the “duration of sodium excreting effects compared to ANF” value [7] was “significantly (P<0.001) prolonged compared to ANF”. The potassium excretion [7] was “significant (P<0.05)”, the “increase in urine volume (in words)” value [7] was “significant” and the “sodium excretion (in words)” value [7] was “significantly (P<0.05) increased”. For the same molecule, the “systolic and diastolic blood pressures” value [7] was “significant” and the “duration of sodium excreting effects compared to ANF” value ([7]; listed as ProANF 1-30) was “last significantly (P<0.001) longer than ANF's effects”.

For angiotensin II [reference compound], the “inhibition” value [3] was “significant at P<0.01”.

“human atrial natriuretic factor (ANF) (peptide)” showed a half maximal activation (ED50) of guanylate cyclase activity [8] of 10 nM.

For `CC[C@H](C)[C@@H]1NC(=O)[C@H](CCCNC(=N)N)NC(=O)[C@H](CC(=O)O)NC(=O)[C@H](CCSC)NC(=O)[C@H](CCCNC(=N)N)NC(=O)CNC(=O)CNC(=O)[C@H](Cc2ccccc2)NC(=O)[C@@H](NC(=O)[C@H](CO)NC(=O)[C@H](CO)NC(=O)[C@H](CCCNC(=N)N)NC(=O)[C@H](CCCNC(=N)N)NC(=O)[C@H](CC(C)C)NC(=O)[C@@H](N)CO)CSSC[C@@H](C(=O)N[C@@H](CC(N)=O)C(=O)N[C@@H](CO)C(=O)N[C@@H](Cc2ccccc2)C(=O)N[C@@H](CCCNC(=N)N)C(=O)N[C@@H](Cc2ccc(O)cc2)C(=O)O)NC(=O)CNC(=O)[C@H](CC(C)C)NC(=O)CNC(=O)[C@H](CO)NC(=O)[C@H](CCC(N)=O)NC(=O)[C@H](C)NC(=O)CNC1=O` [ANF, reference compound], the hypotension ([5]; human, in vivo) was “became hypotensive”.

With “H-SSDRSALLKSKLRALLTAPR-OH [proANF 79-98]” the “particulate guanylate cyclase activity” value [1] was “enhance”, the “cyclic GMP levels in cultured smooth muscle cells” value [2] was “increase cyclic GMP levels” and the “concentration of maximal activation of guanylate cyclase activity” value [2] was “about 1 μM”. For the same molecule, the EC50 [2] was about 10 nM, the “increase in cyclic GMP levels over baseline levels associated with vasodilation” value (porcine aortas) was “four-to-five fold” and the “inhibition” value [3] was “significant at P<0.01”. The “prostaglandin E2 (PGE2) synthesis” value [4] was “increase prostaglandin E2 (PGE2) synthesis”, the hypotension ([5]; CHF patients) was “None became hypotensive” and the “enhancement of sodium excretion” value [5] was 3 fold. For the same molecule, the “increase of urine flow (maximal)” value ([5]; NYHA class III CHF, 100 ng/kg body weight/min i.v. for 60 minutes, P<0.001) was 4 fold, the “effects in persons with CHF compared to healthy individuals” value ([5]; diuretic and natriuretic effects) was “not blunted in persons with CHF but rather are increased compared to healthy individuals” and the “FENa, fractional excretion of sodium” value [6, 9] was 0.030 ± 0.024%. The “UNa, urinary sodium” value [6, 9] was 42.27 ± 24.68 meq/1, the “UNaV, urinary sodium excretion rate” value [6, 9] was 90.88 ± 77.76 μeq · min^−1 · g kidney wt^−1 and the “V, urine flow rate” value [6, 9] was 2.62 ± 0.70 μl · min^−1 · g kidney wt^−1. The “V, urine flow rate” value [6, 10] was 4.75 ± 1.57 μl · min^−1 · g kidney wt^−1, the “FENa, fractional excretion of sodium” value [6, 11] was 0.200 ± 0.152% and the “UNa, urinary sodium” value [6, 11] was 63.30 ± 22.11 meq/1. The “UNaV, urinary sodium excretion rate” value [6, 11] was 363.98 ± 261.85 μeq · min^−1 · g kidney wt^−1, the “V, urine flow rate” value [6, 12] was 5.16 ± 1.04 μl · min^−1 · g kidney wt^−1 and the “FENa, fractional excretion of sodium” value [6, 13] was 0.368 ± 0.273%. For the same molecule, the “UNa, urinary sodium” value [6, 13] was 92.53 ± 29.17 meq/1, the “UNaV, urinary sodium excretion rate” value [6, 13] was 564.22 ± 315.48 μeq · min^−1 · g kidney wt^−1 and the potassium excretion ([6]; rat clearance model) was “very significant stimulator of potassium excretion”. For the same molecule, the “sodium excretion (in words)” value ([6]; rat clearance model) was “does not significantly increase sodium excretion”, the potassium excretion [7] was “significant (P<0.05)” and the “increase in urine volume (in words)” value [7] was “significant”. For the same molecule, the “sodium excretion (in words)” value ([7]; listed as ProANF 79-98) was “does not have natriuretic effects in healthy humans”, the “systolic and diastolic blood pressures” value [7] was “significant” and the potassium excretion ([7]; listed as ProANF 79-98) was “strongest stimulator of potassium excretion of any of the atrial peptides; also recorded: significant (P<0.01) enhancer of potassium excretion”. For the same molecule, the “increase in urine flow” value ([7]; infusion) was 2 fold.

With `COc1ccc2cc([C@H](C)C(=O)O)ccc2c1` [Naproxen, reference compound] the “blockade of the peptides' effects on renal medullary Na+-K+-ATPase” value ([3]; 0.5 mM) was “completely blocked”.

Molecule H-SSDRSALLKSKLRALLTAPR-OH [human pro-ANF 79-98] has a half maximal activation (ED50) of guanylate cyclase activity [8] of 10 nM.

For H-EVVPPQVLSEPNEEAGAALSPLPEVPPWTGEVSPAQR-OH [human pro-ANF 31-67], the half maximal activation (ED50) of guanylate cyclase activity [8] was 10 nM.

In the case of H-NPMYNAVSNADLMDFKNLLDHLEEKMPLED-OH [human pro-ANF 1-30], the half maximal activation (ED50) of guanylate cyclase activity [8] is reported as 10 nM.
